Laboratory results reported in patent US11000033B2, “Ketone or oxime compound, and herbicide” (NISSAN CHEMICAL CORPORATION, priority 2014, dated 2021).

Assays:
Assay type in all cases: in vivo
wheat = experiment: Test Example 4: effect on crop by soil treatment (symbol e)
Method in brief: (§1)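 Grown at 25° C. to 30° C. in a greenhouse, the crops came from seed sown spot-wise in sterilized diluvial soil under roughly 1.5 cm of covering soil.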

soybean [1] = experiment: Test Example 4: effect on crop by soil treatment (symbol d)
Method in brief: as §1

Avena fatua = experiment: Test Example 4: herbicidal effect by soil treatment (symbol I)
Method in brief: (§2)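 Seeds were sown in sterilized diluvial soil, covered with about 1.5 cm of soil, and the soil surface was sprayed with a water-diluted emulsion of the compound at a predetermined rate. Plants grew in a greenhouse at 25° C. to 30° C.; effects were scored visually 3 weeks after application.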

beet = experiment: Test Example 4: effect on crop by soil treatment (symbol f)
Method in brief: as §1

Abutilon theophrasti = experiment: Test Example 4: herbicidal effect by soil treatment (symbol M)
Method in brief: as §2

Amaranthus retroflexus = experiment: Test Example 5: herbicidal effect by foliage application, plastic box (symbol N); conditions: 320 g/ha, 3 weeks after application
Method in brief: (§3)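 Seeds were sown in sterilized diluvial soil, covered with about 1.5 cm of soil and grown 14 days in a greenhouse at 25° C. to 30° C. An emulsifiable formulation diluted in water to a set rate was sprayed over foliage, and injury was scored 3 weeks later.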

transplanted rice plant = experiment: Test Example 1: effect on crop, application before weed generation in submerged conditions (symbol a); conditions: application herbicide amount 320 g/ha
Method in brief: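 Alluvial soil pots flooded to 4 cm water, sown with Echinochloa oryzacola, Scirpus juncoides and Monochoria vaginalis, then transplanted with 2.5 leaf stage rice seedlings; pre-emergence application. Greenhouse 25° C. to 30° C.; scored 0–5 by herbicidal ratio 3 weeks after application.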

Lolium multiflorum Lam. [2] = experiment: Test Example 5: herbicidal effect by foliage application, plastic box (symbol K); conditions: 320 g/ha, 3 weeks after application
Method in brief: as §3

soybean [3] = experiment: Test Example 5: effect on crop by foliage application, plastic box (symbol d); conditions: 320 g/ha, 3 weeks after application
Method in brief: (§4)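 Plants were raised from seed in a greenhouse (25° C. to 30° C.) after sowing in a plastic box of sterilized diluvial soil.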

Scirpus juncoides = experiment: Test Example 2: herbicidal activity, application during weed generation in submerged conditions (symbol B); conditions: Table 23; application herbicide amount 320 g/ha; grade 0-5 by criteria of Test Example 1
Method in brief: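 Treatment timing was the one- to two-leaf stage, with diluted emulsifiable compound dropped onto the paddy water (depth 4 cm) over alluvial soil. All three species grew from a mixed sowing in a 25° C. to 30° C. greenhouse. Injury was judged by eye 3 weeks on.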

rapeseed = experiment: Test Example 5: effect on crop by foliage application, plastic box (symbol g); conditions: 320 g/ha, 3 weeks after application
Method in brief: as §4

[4] = system: Echinochloa crus-galli var. crus-galli; experiment: Test Example 5: herbicidal effect by foliage application, plastic box (symbol H); conditions: 320 g/ha, 3 weeks after application
Method in brief: as §3

rice = experiment: Test Example 4: effect on crop by soil treatment (symbol b)
Method in brief: as §1

Digitaria ciliaris = experiment: Test Example 5: herbicidal effect by foliage application, plastic box (symbol F); conditions: 320 g/ha, 3 weeks after application
Method in brief: as §3

corn = experiment: Test Example 5: effect on crop by foliage application, plastic box (symbol c); conditions: 320 g/ha, 3 weeks after application
Method in brief: as §4

[5] = system: Echinochloa crus-galli var. crus-galli; experiment: Test Example 4: herbicidal effect by soil treatment (symbol H)
Method in brief: as §2

Lolium multiflorum Lam. [6] = experiment: Test Example 4: herbicidal effect by soil treatment (symbol K)
Method in brief: as §2

Veronica persica = experiment: Test Example 5: herbicidal effect by foliage application, plastic box (symbol R); conditions: 320 g/ha, 3 weeks after application
Method in brief: as §3

[7] = application herbicide amount 320 g/ha

| SMILES | N: Amaranthus retroflexus, herbicidal effect (criteria 0-5) (Amaranthus retroflexus) | Effect grade on crop, a: transplanted rice plant (transplanted rice plant) | K: Lolium multiflorum Lam., herbicidal effect (criteria 0-5) (Lolium multiflorum Lam. [2]) | d: soybean, effect on crop (criteria 0-5) (soybean [3]) | Herbicidal effect grade, B: Scirpus juncoides (Scirpus juncoides) | g: rapeseed, effect on crop (criteria 0-5) (rapeseed) | H: Echinochloa crus-galli var. crus-galli, herbicidal effect (criteria 0-5) [4] | F: Digitaria ciliaris, herbicidal effect (criteria 0-5) (Digitaria ciliaris) | c: corn, effect on crop (criteria 0-5) (corn) | also measured |
| --- | --- | --- | --- | --- | --- | --- | --- | --- | --- | --- |
| CON=C(C)CC1CC(OC(=O)COc2cccc(C#N)c2)=C(c2c(C)cc(C)cc2C)C1=O (centres unmarked) [1-074] | 0 (Herbicidal ratio of 5% or lower (almost no effect)) | 5 (Herbicidal ratio of 90% or more (almost completely withered)) | 5 (Herbicidal ratio of 90% or more (almost completely withered)) | 4 (Herbicidal ratio of 70% or higher and lower than 90%) | 4 (Herbicidal ratio of 70% or higher and lower than 90%) | 4 (Herbicidal ratio of 70% or higher and lower than 90%) | 5 (Herbicidal ratio of 90% or more (almost completely withered)) | 5 (Herbicidal ratio of 90% or more (almost completely withered)) | 5 (Herbicidal ratio of 90% or more (almost completely withered)) | e (wheat) effect on crop grade (wheat; [7]): 4 (Herbicidal ratio of 70% or higher and lower than 90%); d (soybean) effect on crop grade (soybean [1]; [7]): 0 (Herbicidal ratio of 5% or lower (almost no effect)); I (Avena fatua) herbicidal effect grade (Avena fatua; [7]): 4 (Herbicidal ratio of 70% or higher and lower than 90%); f (beet) effect on crop grade (beet; [7]): 0 (Herbicidal ratio of 5% or lower (almost no effect)); M (Abutilon theophrasti) herbicidal effect grade (Abutilon theophrasti; [7]): 5 (Herbicidal ratio of 90% or more (almost completely withered)); b (directly sowed rice plant) effect on crop grade (rice; [7]): 5 (Herbicidal ratio of 90% or more (almost completely withered)); H (Echinochloa crus-galli var. crus-galli) herbicidal effect grade [5, 7]: 5 (Herbicidal ratio of 90% or more (almost completely withered)); K (Lolium multiflorum Lam.) herbicidal effect grade (Lolium multiflorum Lam. [6]; [7]): 5 (Herbicidal ratio of 90% or more (almost completely withered)) |
| C=CC(CC1CC(O)=C(c2c(C)cc(C)cc2C)C1=O)=NOC (centres unmarked) [1-086] | 0 (Herbicidal ratio of 5% or lower (almost no effect)) | 3 (Herbicidal ratio of 40% or higher and lower than 70%) | 5 (Herbicidal ratio of 90% or more (almost completely withered)) | 0 (Herbicidal ratio of 5% or lower (almost no effect)) | 0 (Herbicidal ratio of 5% or lower (almost no effect)) | 3 (Herbicidal ratio of 40% or higher and lower than 70%) | 5 (Herbicidal ratio of 90% or more (almost completely withered)) | 0 (Herbicidal ratio of 5% or lower (almost no effect)) | 3 (Herbicidal ratio of 40% or higher and lower than 70%) | e: wheat, effect grade on crop (wheat; 320 g/ha): 0 (Herbicidal ratio of 5% or lower (almost no effect)); d: soybean, effect grade on crop (soybean [1]; 320 g/ha): 0 (Herbicidal ratio of 5% or lower (almost no effect)); I: Avena fatua, herbicidal effect grade (Avena fatua; 320 g/ha): 3 (Herbicidal ratio of 40% or higher and lower than 70%); f: beet, effect grade on crop (beet; 320 g/ha): 0 (Herbicidal ratio of 5% or lower (almost no effect)); M: Abutilon theophrasti, herbicidal effect grade (Abutilon theophrasti; 320 g/ha): 0 (Herbicidal ratio of 5% or lower (almost no effect)); b: directly sowed rice plant, effect grade on crop (rice; 320 g/ha): 5 (Herbicidal ratio of 90% or more (almost completely withered)); H: Echinochloa crus-galli var. crus-galli, herbicidal effect grade ([5]; 320 g/ha): 1 (Herbicidal ratio of 5% or higher and lower than 20%); K: Lolium multiflorum Lam., herbicidal effect grade (Lolium multiflorum Lam. [6]; 320 g/ha): 5 (Herbicidal ratio of 90% or more (almost completely withered)); R: Veronica persica, herbicidal effect (criteria 0-5) (Veronica persica): 2 (Herbicidal ratio of 20% or higher and lower than 40%) |
